Source: patent US8791100B2 (Novartis AG, priority 2010, dated 2014)

Experiments:
[1] = biological target: human S1P1 receptors (Homo sapiens (Human), UniProt P21453); experiment: Human S1P1 Receptor Calcium FLIPR Antagonist Assay (HeLa Gα16 S1P1); type: cell-based; conditions: relative antagonism vs probing agonist GNF-AC-1 at EC80, HeLa-S1P1/Gα16 cells
Procedure, shortened: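 HeLa cells stably expressing myc-tagged human S1P1 with Gα16, loaded with Fluo-4-AM, preincubated 20-30 min with compound (≦100 μM, 0.1% BSA). Agonist GNF-AC-1 then added at EC80 and calcium fluorescence recorded on FLIPR. IC50 from (Fmax−Fmin)/Fmin versus log concentration.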

[2] = system: peripheral lymphocyte counts; experiment: Measurement of circulating lymphocytes after oral administration (rats); type: in vivo; conditions: Lewis rats, 30 mg/kg p.o., vs mean counts of untreated animals, mean ± STDEV
Procedure: (§1) The compounds of the invention, e.g. compounds of formula (I) typically induce the depletion of blood lymphocyte as may be determined in the assay described below. Moreover, compounds of the invention, e.g. compounds of formula (I) are typically efficacious in the said assay also when administered via the per oral route of administration.
(§2) Measurement of Circulating Lymphocytes:
(§3) The test compounds (or salts thereof) are dissolved in a vehicle such as water, saline, PEG (polyethylene glycol) 200, or PBS (phosphate buffered saline). Adult mice (C57BU6NCrl strain, female, 18-20 g) or rats (Lewis strain, male, 6-12 weeks old) are administered up to 60 mg/kg of the test compounds in 10 ml/kg (C57BU6NCrl mice) or 2 ml/kg (Lewis rats) vehicle via per oral application. The vehicle or a reference salt and FTY720 (0.3 mg/kg) are used as negative and positive controls, respectively. Blood is collected from the sublingual vein at single time points, e.g. 14 or 24 hours after the test compound administration, under short isoflurane anesthesia. Two to three animals are used in each group. Whole blood samples are subjected to hematology analysis. Peripheral lymphocyte counts are determined using an automated analyzer. The Haemathology System uses a combination of light scatter, cytochemical staining and nuclear density on two independent channels to measure the total and differential white cell counts. The reduction of lymphocytes provoked by each test compound is calculated by comparing the lymphocyte counts measured after each treatment to the mean lymphocyte counts measured in five to eight untreated mice or rats, respectively. The data are presented as mean±STDEV.

[3] = system: peripheral lymphocyte counts; experiment: Measurement of circulating lymphocytes after oral administration (mice); type: in vivo; conditions: Mus musculus, C57BL/6NCrl mice, 30 mg/kg p.o., 24 hours, vs mean counts of untreated animals, mean ± STDEV, read-out: Residual Lymphocyte Counts 24 hours after p.o. dosing
Procedure: as §1, §2, §3

Chain of human S1P1 receptors (P21453 whole entry): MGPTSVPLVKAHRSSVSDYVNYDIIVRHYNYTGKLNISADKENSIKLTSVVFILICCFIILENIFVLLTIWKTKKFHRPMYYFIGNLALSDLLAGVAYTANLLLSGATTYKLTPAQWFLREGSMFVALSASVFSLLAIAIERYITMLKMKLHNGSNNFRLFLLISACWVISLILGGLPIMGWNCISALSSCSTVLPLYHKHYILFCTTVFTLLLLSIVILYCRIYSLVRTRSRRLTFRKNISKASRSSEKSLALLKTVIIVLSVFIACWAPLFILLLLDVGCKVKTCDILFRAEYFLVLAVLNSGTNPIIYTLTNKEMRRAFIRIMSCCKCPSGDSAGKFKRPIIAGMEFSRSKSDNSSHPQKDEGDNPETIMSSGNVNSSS

Cc1cc([C@H](Nc2cc(CN3CC[C@@H](C(=O)O)C3)c(Cl)cn2)C(F)(F)F)ccc1Cl [Example 84, (R)-1-{5-Chloro-2-[(S)-1-(4-chloro-3-methyl-phenyl)-2,2,2-trifluoro-ethylamino]-pyridin-4-ylmethyl}-pyrrolidine-3-carboxylic acid]
IC50 [1]: 400 pM
Residual Lymphocyte Counts 24 hours after p.o. dosing [2]: 16.8% ± 7.2

Cc1cc([C@H](Nc2cc(CNCCC(=O)O)c(Cl)cn2)C(F)(F)F)ccc1Cl [Example 85, 3-({5-Chloro-2-[(S)-1-(4-chloro-3-methyl-phenyl)-2,2,2-trifluoro-ethylamino]-pyridin-4-ylmethyl}-amino)-propionic acid]
IC50 [1]: 900 pM
Residual Lymphocyte Counts 24 hours after p.o. dosing [2]: 11.6% ± 0.3

Cc1cc([C@H](Nc2ccc(C)c(CN3CC(C(=O)O)C3)c2)C(F)(F)F)ccc1Cl [Example 70, 1-{5-[(S)-1-(4-Chloro-3-methyl-phenyl)-2,2,2-trifluoro-ethylamino]-2-methyl-benzyl}-azetidine-3-carboxylic acid]
IC50 [1]: 100 pM
response vs control in vivo at 30 mg/kg [3]: 20.2%

CCc1ccc(N[C@@H](c2ccc(Cl)c(C)c2)C(F)(F)F)cc1CN1CC[C@@H](C(=O)O)C1 [Example 34, (R)-1-{5-[(S)-1-(4-Chloro-3-methyl-phenyl)-2,2,2-trifluoro-ethylamino]-2-ethyl-benzyl}-pyrrolidine-3-carboxylic acid]
IC50 [1]: 800 pM
response vs control in vivo at 30 mg/kg [3]: 24.2%

CC[C@@H](Nc1ccc(C)c(CN2CC[C@@H](C(=O)O)C2)c1)c1ccc(Cl)c(C)c1 [Example 23, (R)-1-{5-[(R)-1-(4-Chloro-3-methyl-phenyl)-propylamino]-2-methyl-benzyl}-pyrrolidine-3-carboxylic acid]
IC50 [1]: 1000 pM
response vs control in vivo at 30 mg/kg [3]: 25.1%

CC[C@@H](Nc1ccc(Cl)c(CN2CC(C(=O)O)C2)c1)c1cc(C)c(Cl)c(C)c1 [Example 61, 1-{2-Chloro-5-[(R)-1-(4-chloro-3,5-dimethyl-phenyl)-propylamino]-benzyl}-azetidine-3-carboxylic acid]
IC50 [1]: 1600 pM
response vs control in vivo at 30 mg/kg [3]: 16.2%

CC[C@@H](Nc1ccc(C)c(CN2CC[C@@H](C(=O)O)C2)c1)c1cc(C)c(Cl)c(C)c1 [Example 42, (R)-1-{5-[(R)-1-(4-Chloro-3,5-dimethyl-phenyl)-propylamino]-2-methyl-benzyl}-pyrrolidine-3-carboxylic acid]
IC50 [1]: 1000 pM
response vs control in vivo at 30 mg/kg [3]: 19.4%
Residual Lymphocyte Counts 24 hours after p.o. dosing [2]: 22.2% ± 6.7

CC[C@@H](Nc1ccc(C)c(CN2CC(C(=O)O)C2)c1)c1cc(C)c(Cl)c(C)c1 [Example 41, 1-{5-[(R)-1-(4-Chloro-3,5-dimethyl-phenyl)-propylamino]-2-methyl-benzyl}-azetidine-3-carboxylic acid]
IC50 [1]: 1300 pM
response vs control in vivo at 30 mg/kg [3]: 20.2%

Cc1cc([C@H](Nc2ccc(Cl)c(CN3CC[C@@H](C(=O)O)C3)c2)C(F)(F)F)ccc1Cl [Example 29, (R)-1-{2-Chloro-5-[(S)-1-(4-chloro-3-methyl-phenyl)-2,2,2-trifluoro-ethylamino]-benzyl}-pyrrolidine-3-carboxylic acid]
IC50 [1]: 400 pM
response vs control in vivo at 30 mg/kg [3]: 35.6%

Cc1cc([C@H](Nc2ccc(C)c(CN3CC[C@@H](C(=O)O)C3)c2C)C(F)(F)F)ccc1Cl [Example 30, (R)-1-{3-[(S)-1-(4-Chloro-3-methyl-phenyl)-2,2,2-trifluoro-ethylamino]-2,6-dimethyl-benzyl}-pyrrolidine-3-carboxylic acid]
IC50 [1]: 900 pM
response vs control in vivo at 30 mg/kg [3]: 19.4%
Residual Lymphocyte Counts 24 hours after p.o. dosing [2]: 26.9 ± 13.0%

Cc1cc([C@H](Nc2ccc(Cl)c(CN3CC(C)(C(=O)O)C3)c2)C(F)(F)F)ccc1Cl [Example 65, 1-{2-Chloro-5-[(S)-1-(4-chloro-3-methyl-phenyl)-2,2,2-trifluoro-ethylamino]-benzyl}-3-methyl-azetidine-3-carboxylic acid]
IC50 [1]: 200 pM
response vs control in vivo at 30 mg/kg [3]: 22.6%
